Conditions: Liquid, isochoric method

CCC [propane]
Conditions | mass density [kg/m3]
207.35 K, 1466.9 kPa | 609.37
208.31 K, 2745.8 kPa | 609.32
209.06 K, 3635.6 kPa | 609.28
209.75 K, 4364.7 kPa | 609.25
215.17 K, 10724 kPa | 608.98
222.43 K, 1045.6 kPa | 592.03
222.75 K, 19646 kPa | 608.63
223.37 K, 2016.7 kPa | 591.98
224.52 K, 3087.1 kPa | 591.93
225.47 K, 4153.8 kPa | 591.89
226.91 K, 5632.5 kPa | 591.82
231.06 K, 30008 kPa | 608.23
231.07 K, 10051 kPa | 591.62
239.51 K, 39217 kPa | 607.87
240.49 K, 1194 kPa | 571.45
240.67 K, 19671 kPa | 591.21
240.92 K, 1528.8 kPa | 571.44
242.87 K, 3265.5 kPa | 571.39
244.55 K, 4758.9 kPa | 571.35
245.44 K, 5554 kPa | 571.33
250.1 K, 9711.4 kPa | 571.2
250.12 K, 29984 kPa | 590.79
251.11 K, 51133 kPa | 607.38
259.96 K, 1060.8 kPa | 547.54
261.06 K, 19770 kPa | 571.13
261.18 K, 40016 kPa | 590.35
261.19 K, 1975 kPa | 547.51
262.52 K, 2951.9 kPa | 547.48
262.52 K, 3059.7 kPa | 547.47
263.78 K, 4004 kPa | 547.44
265.28 K, 5120.2 kPa | 547.4
266.44 K, 5840.1 kPa | 547.37
267.87 K, 6954.7 kPa | 547.34
270.11 K, 49092 kPa | 589.98
270.22 K, 1044.7 kPa | 533.77
271.68 K, 2041.5 kPa | 533.71
272.12 K, 10829 kPa | 547.66
272.12 K, 30057 kPa | 570.94
272.13 K, 10235 kPa | 547.22
273.11 K, 3025.3 kPa | 533.66
274.51 K, 3979.1 kPa | 533.61
276.2 K, 5186.1 kPa | 533.54
283.08 K, 995.2 kPa | 515.52
283.43 K, 38987 kPa | 570.26
283.64 K, 10260 kPa | 533.26
284.77 K, 2002.1 kPa | 515.46
284.98 K, 19876 kPa | 546.88
286.56 K, 3090.5 kPa | 515.39
288.23 K, 4086.1 kPa | 515.33
289.9 K, 5086.2 kPa | 515.27
295.92 K, 49573 kPa | 569.78
297.68 K, 1075 kPa | 493.21
298.14 K, 10031 kPa | 514.99
298.15 K, 10038 kPa | 514.99
298.15 K, 19981 kPa | 532.71
298.15 K, 30027 kPa | 546.51
298.15 K, 30100 kPa | 546.7
298.18 K, 19921 kPa | 532.75
298.19 K, 20084 kPa | 532.74
299.62 K, 2037.9 kPa | 493.14
301.57 K, 3036.9 kPa | 493.08
303.56 K, 4053.8 kPa | 493.01
305.53 K, 5060.2 kPa | 492.95
311.44 K, 39238 kPa | 545.97
313.68 K, 30193 kPa | 532.17
315.23 K, 2005.2 kPa | 466.11
315.23 K, 9905.5 kPa | 492.64
315.23 K, 10017 kPa | 492.63
315.23 K, 19842 kPa | 514.41
317.42 K, 2930.2 kPa | 466.04
319.89 K, 3981.7 kPa | 465.97
322.25 K, 4976.5 kPa | 465.9
332.01 K, 29682 kPa | 513.86
333.97 K, 19538 kPa | 492.04
334.14 K, 9861.6 kPa | 465.55
344.57 K, 49972 kPa | 531.11
353.14 K, 29253 kPa | 491.45
353.14 K, 42004 kPa | 513.17
353.15 K, 17921 kPa | 464.99

Reference: the NIST ThermoML archive (doi:10.1021/je300148f)
